Holding throughout (experiment): Two-electrode voltage clamp, ACh-dependent (m2R-dependent) K+ current activation
Assay type in all cases: cell-based
A general note: Two-electrode voltage clamp holds a large cell at a set potential and records current.

The target in assay [1] is T1, Kir3.2 E236S (Mus musculus, UniProt P48542, E236S).
T1 sequence (P48542 19-425 E236S): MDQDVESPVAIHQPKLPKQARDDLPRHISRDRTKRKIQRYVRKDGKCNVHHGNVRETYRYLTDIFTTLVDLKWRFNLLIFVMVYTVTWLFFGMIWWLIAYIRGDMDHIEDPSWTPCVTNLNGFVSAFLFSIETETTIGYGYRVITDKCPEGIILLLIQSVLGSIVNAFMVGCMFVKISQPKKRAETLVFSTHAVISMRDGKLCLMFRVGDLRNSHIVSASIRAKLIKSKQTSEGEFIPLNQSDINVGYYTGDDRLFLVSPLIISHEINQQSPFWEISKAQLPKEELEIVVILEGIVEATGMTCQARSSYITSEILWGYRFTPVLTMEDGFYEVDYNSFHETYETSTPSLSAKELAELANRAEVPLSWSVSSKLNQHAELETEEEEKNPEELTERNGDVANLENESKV
T1 sequence (P06199 1-466 partner): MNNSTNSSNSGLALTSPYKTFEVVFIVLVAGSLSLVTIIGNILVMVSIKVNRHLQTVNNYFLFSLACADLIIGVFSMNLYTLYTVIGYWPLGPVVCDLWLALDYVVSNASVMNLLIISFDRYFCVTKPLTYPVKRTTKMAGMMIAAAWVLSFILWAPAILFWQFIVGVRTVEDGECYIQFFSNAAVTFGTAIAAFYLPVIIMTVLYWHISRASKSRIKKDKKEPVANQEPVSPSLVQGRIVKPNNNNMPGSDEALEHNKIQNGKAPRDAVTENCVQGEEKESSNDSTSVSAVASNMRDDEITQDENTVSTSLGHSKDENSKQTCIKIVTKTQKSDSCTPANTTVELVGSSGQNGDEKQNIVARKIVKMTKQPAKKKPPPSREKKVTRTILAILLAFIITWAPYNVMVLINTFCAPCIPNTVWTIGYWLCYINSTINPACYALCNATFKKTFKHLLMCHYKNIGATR
Particulars: Kir3.2 E236S with porcine m2R in Xenopus oocytes; −120 mV; Hill equation fit. The text has this: (§1) The mouse Kir3.2d isoform was subjected to functional analyses. The amino acid numbers correspond to the longest mouse Kir3.2 isoform. Point mutations were introduced using the QuikChange site-directed mutagenesis kit (Stratagene, La Jolla, CA), and the presence of the mutations was confirmed by direct DNA sequencing. The care of Xenopus laevis was in accordance with the guideline of the Institute of Experimental Animal Sciences, Osaka University. The protocol was approved by the Animal Experiment Committee of Osaka University. The frogs were deeply anesthetized by immersing in 0.2% tricaine methanesulfonate for 20 min at 18°C. A portion of an ovary lobe was surgically removed and incubated with collagenase to remove follicular cells. The oocytes were injected with the cRNAs of Kir3.2 and porcine m2-muscarinic receptor (m2R), and maintained in modified Barth’s solution at 18°C with daily solution changes. Electrophysiological studies were undertaken 48–72 h later at room temperature (20–25°C). Two-electrode voltage-clamp recordings from oocytes were performed using a GeneClamp 500B amplifier (Axon Instruments, Sunnyvale, CA). […] The bath solution contained 40 mM KCl, 50 mM NaCl, 3 mM MgCl2, 0.15 mM niflumic acid, and 5 mM HEPES-KOH (pH 7.4). The currents were recorded in the absence or presence of various concentrations of acetylcholine (ACh). Ba^2+ (3 mM) was added at the end of the recording to estimate the endogenous leak current. The data are expressed as mean values ± standard error of the mean. For the quantitative estimation of ACh-dependent current responses of the wild-type (WT) and mutant channels, the current amplitudes at the end of test pulses at each ACh concentration ([ACh]) were fitted using the following equation:
(§2) I=min+[(max−min)/(1+(EC50/[ACh])^nH)]
(§3) where I is the current amplitude measured at the [ACh], n H is the Hill coefficient, and EC50 is the concentration that induces 50% of the maximal response. […] The values of n H and EC50 were calculated using a non-linear least-squares best fit (SigmaPlot 9; Systat Software). Statistical analyses were performed by one-way ANOVA with post-hoc tests.

Assay [2] has as its target T2, Kir3.2 E236Q (Mus musculus, UniProt P48542, E236Q).
T2 sequence (P48542 19-425 E236Q): T1 sequence (P48542 19-425 E236S) with S218Q
T2 sequence (P06199 1-466 partner): T1 sequence (P06199 1-466 partner)
Conditions: Kir3.2 E236Q with porcine m2R in Xenopus oocytes; −120 mV; Hill equation fit.
From the text: as §1, §2, §3

The target in assay [3] is T3, Kir3.2 E236N (Mus musculus, UniProt P48542, E236N).
T3 sequence (P48542 19-425 E236N): T1 sequence (P48542 19-425 E236S) with S218N
T3 sequence (P06199 1-466 partner): T1 sequence (P06199 1-466 partner)
Conditions: Kir3.2 E236N with porcine m2R in Xenopus oocytes; −120 mV; Hill equation fit.
From the text: as §1, §2, §3

These results are taken from paper PMC3823594, “Conformational Changes Underlying Pore Dilation in the Cytoplasmic Domain of Mammalian Inward Rectifier K^+ Channels” (PLoS ONE, 2013).

Changes are numbered by the printed parent chain.

Broadly, the Hill coefficient is the slope factor of the fitted curve. On to `CC(=O)OCC[N+](C)(C)C` [ACh, acetylcholine], for which the values for the Hill coefficient in assay [1], in assay [2] and in assay [3] were 0.86 ± 0.07, 0.75 ± 0.02 and 0.82 ± 0.08, respectively.
